Here are results for 14 molecules from ChEMBL document CHEMBL1201862, “PubChem BioAssay data set” (2004).

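These data come from cells grown in 96-well plates and exposed to compound for 48 hours at five concentrations. GI50 marks 50% less growth.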 Active and inactive are the calls of the source. No stated cut-off is given here; in the data, active = GI50 up to about 1.1 µM and inactive = higher.

Holding throughout (assay): NCI anticancer screen, dose series, 48 h
For assay [1], the system named is SK-OV-3.
Assay [2] concerns LOX IMVI.
The test system of assay [3] is RPMI-8226.
Assay [4] has as its system SNB-19.
Assay [5] relates to NCI-H460.
For assay [6], the system named is SK-MEL-5.
The subject of assay [7] is HCC 2998.
Assay [8] deals with U-251.
The subject of assay [9] is TK-10.
Assay [10] concerns HCT-15.
Assay [11] concerns HCT-116.
Assay [12] relates to HOP-62.
Assay [13] relates to UO-31.
Assay [14] deals with NCI-H522.
The test system of assay [15] is SF-268.
Assay [16] deals with SK-MEL-2.
The subject of assay [17] is HT-29.

Take `C/C(=N\N=C(\N)S)c1ccc(Oc2ccccc2)cc1`: the GI50 in assay [1] is 16.2 µM (inactive); in assay [2] it was 13.5 µM (inactive); in assay [3], 1.78 µM (inactive); in [4] it was 16 µM (inactive); in assay [5], 17.3 µM (inactive); in [6] it was 5.12 µM (inactive). The GI50 is 7.93 µM (inactive) in assay [7]; 15.4 µM (inactive) in assay [8]; 4.09 µM (inactive) in assay [9]; 3.99 µM in [10]; 10.2 µM (inactive) in assay [11]; 20.5 µM (inactive) in assay [12].

With `O=C(C#Cc1ccccc1)Nc1ccccc1CC(c1c[nH]c2ccccc12)c1c[nH]c2ccccc12`, the GI50 was 33.2 µM (inactive) in assay [1]; 7.43 µM (inactive) in [2]; 3.52 µM (inactive) in assay [3]; 26 µM (inactive) in [4]; 13.5 µM (inactive) in assay [13]; 11.6 µM (inactive) in assay [14]. In addition, the GI50 in assay [6] is 17.9 µM (inactive); in assay [15], 25.4 µM (inactive); in assay [7] it was 23.2 µM (inactive); in [16], 18.3 µM (inactive); in assay [9], 31.5 µM (inactive); in [10] it was 7.5 µM. The GI50 in assay [17] is 10.3 µM (inactive); in assay [12] it was 39.6 µM (inactive).

In the case of `O=C1c2cccc3cc([N+](=O)[O-])cc(c23)C(=O)N1CCCN1CCN(CCCN2C(=O)c3cccc4cc([N+](=O)[O-])cc(c34)C2=O)CC1`, the GI50 in [1] is 2.59 µM (inactive); in assay [2], 0.0234 µM (active); in assay [3] it was 0.0887 µM (active); in assay [4], 0.122 µM (active); in assay [5] it was 0.0142 µM (active); in assay [13] it was 0.0695 µM (active). The GI50 is 0.0853 µM (active) in assay [6]; 0.0625 µM (active) in assay [7]; 0.23 µM (active) in assay [16]; 0.0248 µM (active) in [8]; 0.798 µM (active) in assay [9]; 0.0495 µM in assay [10]. In addition, the results for the GI50 in assay [17], in assay [11] and in assay [12] were < 0.01 µM (active), < 0.01 µM (active) and 2.88 µM (inactive), respectively.

On to `CC1CN1P1(N2CC2C)=NP(N2CC2C)(N2CC2C)=NP(N2CC2C)(N2CC2C)=N1` (stereo not drawn), for which the GI50 in [1], in [3], in [4], in assay [5], in assay [13] and in assay [14] was > 50 µM (inactive) throughout. Also, the GI50 in assay [6] was > 50 µM (inactive); in assay [15], > 50 µM (inactive); in assay [7] it was > 50 µM (inactive); in [8] it was > 50 µM (inactive); in [9], > 50 µM (inactive); in assay [10], > 50 µM. Also, the GI50 in assay [17] and in assay [11] was > 50 µM (inactive) throughout.

In the case of `COc1ccc(OC)c(NC(=O)C2=C(C)NC(C)=C(C(=O)Nc3cc(OC)ccc3OC)C2c2ccco2)c1`, the GI50 in [1] was > 100 µM (inactive); in assay [3], 63 µM (inactive); in [4] it was > 100 µM (inactive); in assay [5] it was > 100 µM (inactive); in assay [13] it was > 100 µM (inactive); in assay [14] it was > 100 µM (inactive). Also, the GI50 in [6] was 51.3 µM (inactive); in assay [15], > 100 µM (inactive); in assay [16] it was > 100 µM (inactive); in assay [8] it was > 100 µM (inactive); in assay [9], > 100 µM (inactive); in assay [10] it was > 100 µM. For the same molecule, the GI50 in assay [17], in assay [11] and in assay [12] was > 100 µM (inactive) in each case.

Consider `CC12OC(=O)C(C#N)C1(C)C1C(=O)CCCC12` (stereo not drawn), for which the GI50 in assay [1], in assay [2], in assay [3], in assay [4], in assay [5] and in [13] was > 100 µM (inactive) in each case. The GI50 was > 100 µM (inactive) in assay [6]; > 100 µM (inactive) in assay [15]; > 100 µM (inactive) in assay [16]; > 100 µM (inactive) in [8]; > 100 µM (inactive) in assay [9]; > 100 µM in assay [10]. Further, the GI50 in assay [11] was > 100 µM (inactive).

For the molecule `CCOC(=O)c1c[nH]c2c(ccc3ncccc32)c1=O`, the GI50 in assay [1], in assay [2], in assay [4], in assay [5], in assay [13] and in [14] was > 100 µM (inactive) each time. For the same molecule, the GI50 in assay [6], in assay [15], in [7], in assay [16], in [8] and in assay [9] was > 100 µM (inactive) each time. In addition, the GI50 in assay [10] was > 100 µM; in assay [17], > 100 µM (inactive); in assay [11], > 100 µM (inactive); in [12], > 100 µM (inactive).

Turning to `N/C(=C\c1ccc(OCc2ccccc2)c(OCc2ccccc2)c1[N+](=O)[O-])C(=O)O`, the GI50 in [1], in [2], in assay [3], in assay [4], in [13] and in [14] was > 100 µM (inactive) throughout. Besides, the GI50 in [6], in [15], in [7], in assay [16], in assay [8] and in [9] was > 100 µM (inactive) each time. Further, the GI50 in assay [17], in [11] and in [12] was > 100 µM (inactive) in each case.

As for `COc1cc2c3c(c1OCc1ccccc1)NCCC3NCC2` (stereo not drawn), the GI50 was > 100 µM (inactive) in [2]; > 100 µM (inactive) in assay [3]; > 100 µM (inactive) in [4]; > 100 µM (inactive) in assay [5]; 51.6 µM (inactive) in assay [13]; > 100 µM (inactive) in [14]. Further, the GI50 was > 100 µM (inactive) in assay [6]; > 100 µM (inactive) in [15]; > 100 µM (inactive) in assay [7]; > 100 µM (inactive) in [8]; > 100 µM (inactive) in [9]; > 100 µM in assay [10]. Also, the GI50 in assay [17], in assay [11] and in assay [12] was > 100 µM (inactive) throughout.

Turning to `CCN(CC)c1ccc(C2N3CCCCC3[C@@H]3c4[nH]c5ccccc5c4CCN23)cc1` (stereo partly drawn), the GI50 in assay [1] was 69.7 µM (inactive); in [3] it was 12.8 µM (inactive); in [4] it was 32.5 µM (inactive); in assay [5], 22.3 µM (inactive); in assay [13], 27 µM (inactive); in assay [6], 17.3 µM (inactive). For the same molecule, the GI50 in assay [15] was 22.1 µM (inactive); in assay [16], > 10 µM (inactive); in assay [8], 29.6 µM (inactive); in assay [9], 27.2 µM (inactive); in [10], 34.8 µM; in [17] it was 16.1 µM (inactive). The figures for the GI50 in assay [11] and in [12] were 16.1 µM (inactive) and > 100 µM (inactive), respectively.

On to `CCCCN(CCCC)CC(C(=O)Nc1ccc([N+](=O)[O-])cc1[N+](=O)[O-])/C(C)=N\NC(=S)NN` (stereo not drawn), for which the GI50 was > 100 µM (inactive) in [1]; > 100 µM (inactive) in assay [2]; 50.1 µM (inactive) in assay [3]; > 100 µM (inactive) in [5]; 26.9 µM (inactive) in assay [13]; 25.5 µM (inactive) in assay [14]. The GI50 in assay [6], in [15], in assay [7], in assay [16], in assay [8] and in assay [9] was > 100 µM (inactive) in each case. The GI50 in assay [17], in assay [11] and in assay [12] was > 100 µM (inactive) throughout.

Turning to `COc1cc(C2c3cc4c(cc3[C@@H](NCCN3CCCCC3)C3COC(=O)[C@H]23)OCO4)cc(OC)c1O` (stereo partly drawn), the GI50 is 0.098 µM (active) in assay [1]; 0.237 µM (active) in [2]; 0.277 µM (active) in assay [3]; 0.354 µM (active) in assay [4]; 0.41 µM (active) in assay [13]; 0.394 µM (active) in assay [6]. Further, the GI50 in assay [15] is 0.346 µM (active); in [16] it was 2.07 µM (inactive); in [8], 0.109 µM (active); in [9], 1.65 µM (inactive); in [10], 0.313 µM; in [17] it was 1.19 µM (inactive). The GI50 was 1.15 µM (inactive) in [11] and 0.064 µM (active) in assay [12].

As to `Cc1c(O)c(=O)ccn1CCO`, the GI50 in assay [1], in [2], in assay [3], in [4], in assay [5] and in assay [13] was > 100 µM (inactive) in each case. The GI50 in [14], in assay [6], in [15], in assay [16], in assay [8] and in assay [9] was > 100 µM (inactive) throughout. The GI50 was > 100 µM in assay [10], > 100 µM (inactive) in assay [17], > 100 µM (inactive) in assay [11] and > 100 µM (inactive) in assay [12].

Take `Cc1c(O)c(=O)ccn1CCN`: the GI50 in assay [1], in assay [2], in [3], in [4], in [5] and in assay [13] was > 100 µM (inactive) throughout. For the same molecule, the GI50 in assay [14], in assay [15], in assay [7], in assay [16], in assay [8] and in assay [9] was > 100 µM (inactive) throughout. In addition, the GI50 in [10] is > 100 µM; in [17], > 100 µM (inactive); in assay [11] it was > 100 µM (inactive).
